According to US20240252527A9, “NUCLEOSIDE DRUGS FOR THE TREATMENT OR PREVENTION OF CORONAVIRUS INFECTION AND THEIR USES” (Miracure Biotechnology Limited, priority 2022, published 2024):
Like-named read-outs stand apart in the source and are kept apart here.

How the values were obtained:
[1] = test system: 229E; assay: 229E MRC5 CPE assay (cytopathic experiment); assay type: cell-based, coronavirus 229E (HCoV-229E)
[2] = test system: OC43; assay: OC43 Huh7 CPE assay (cytopathic experiment); assay type: cell-based, coronavirus OC43 (HCoV-OC43); conditions: for EC50: read-out: OC43 Huh7 CPE assay (μM) EC50; for EC90: read-out: OC43 Huh7 CPE assay (μM) EC90
In short: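 Cells seeded overnight, then two-fold diluted compound added with virus; viability read by CellTiter-Glo after 3 days (229E, MRC5 cells) or 7 days (OC43, Huh7 cells). EC50/EC90 from % inhibition of virus-induced CPE; CC50 from parallel uninfected cytotoxicity runs, by nonlinear fitting.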

[3] = Human coronavirus 229E, MRC5, 72 h, read-out: 229E MRC5 CPE assay (μM) EC50
[4] = Human coronavirus 229E, MRC5, 72 h, read-out: 229E MRC5 CPE assay (μM) EC90
[5] = Betacoronavirus 1, OC43, Huh-7, 168 h
[6] = Human coronavirus 229E, MRC5, 72 h; read-out: 229E MRC5 CPE assay (μM) EC50
[7] = Human coronavirus 229E, MRC5, 72 h; read-out: 229E MRC5 CPE assay (μM) EC90
[8] = Betacoronavirus 1, Huh-7, 168 h, Huh7 cells, OC43 virus, 7 days, Cell Titer Glo

Row | SMILES | EC50 [1, 3] | EC90 [1, 4] | EC50 [2, 5] | EC90 [2, 5] | EC50 [1, 6] | EC90 [1, 7] | EC50 [2, 8] | EC90 [2, 8]
1 | N#C[C@@]1(c2ccc3c(N)ncnn23)O[C@@H]2CO[P@](=O)(OCOC(=O)Oc3ccccc3)O[C@H]2[C@H]1O [Compound 228] | > 0.5 µM | > 0.5 µM | > 0.5 µM | > 0.5 µM | – | – | – | –
2 | N#C[C@@]1(c2ccc3c(N)ncnn23)O[C@@H]2CO[P@@](=O)(OCOC(=O)Oc3ccccc3)O[C@H]2[C@H]1O [Compound 229] | > 0.5 µM | > 0.5 µM | > 0.5 µM | > 0.5 µM | – | – | – | –
3 | CCO[P@@]1(=O)OC[C@H]2O[C@@](C#N)(c3ccc4c(N)ncnn34)[C@H](O)[C@@H]2O1 [Compound 230] | – | – | – | – | > 0.5 µM | > 0.5 µM | > 0.5 µM | > 0.5 µM
4 | CCO[P@]1(=O)OC[C@H]2O[C@@](C#N)(c3ccc4c(N)ncnn34)[C@H](O)[C@@H]2O1 [Compound 231] | – | – | – | – | > 0.5 µM | > 0.5 µM | > 0.5 µM | > 0.5 µM
5 | [2H]c1cc([C@]2(C#N)O[C@@H]3CO[P@](=O)(OCC)O[C@H]3[C@H]2O)n2ncnc(N)c12 [Compound 232] | – | – | – | – | > 0.5 µM | > 0.5 µM | > 0.5 µM | > 0.5 µM
6 | [2H]c1cc([C@]2(C#N)O[C@@H]3CO[P@@](=O)(OCC)O[C@H]3[C@H]2O)n2ncnc(N)c12 [Compound 233] | – | – | – | – | > 0.5 µM | > 0.5 µM | > 0.5 µM | > 0.5 µM
7 | CC(C)(C)C(=O)SCCO[P@@]1(=O)OC[C@H]2O[C@@](C#N)(c3ccc4c(N)ncnn34)[C@H](O)[C@@H]2O1 [Compound 236] | < 0.1 µM | < 0.1 µM | < 0.1 µM | < 0.1 µM | – | – | – | –
8 | [2H]c1cc([C@]2(C#N)O[C@@H]3CO[P@](=O)(OCCSC(=O)C(C)(C)C)O[C@H]3[C@H]2O)n2ncnc(N)c12 [Compound 238] | < 0.1 µM | < 0.1 µM | < 0.1 µM | < 0.1 µM | – | – | – | –
9 | [2H]c1cc([C@]2(C#N)O[C@@H]3CO[P@@](=O)(OCCSC(=O)C(C)(C)C)O[C@H]3[C@H]2O)n2ncnc(N)c12 [Compound 239] | < 0.1 µM | < 0.1 µM | < 0.1 µM | 0.1 to 0.5 µM | – | – | – | –
10 | N#C[C@@]1(c2ccc3c(N)ncnn23)O[C@@H]2COP(=O)(O)O[C@H]2[C@H]1OC(=O)CCCc1ccccc1 [Compound 260] | 0.1 to 0.5 µM | 0.1 to 0.5 µM | > 0.5 µM | > 0.5 µM | – | – | – | –
11 | N#C[C@@]1(c2ccc3c(N)ncnn23)O[C@@H]2CO[P@](=O)(OCOC(=O)C3CCCC3)O[C@H]2[C@H]1O [Compound 261] | 0.1 to 0.5 µM | > 0.5 µM | > 0.5 µM | > 0.5 µM | – | – | – | –
12 | N#C[C@@]1(c2ccc3c(N)ncnn23)O[C@@H]2CO[P@@](=O)(OCOC(=O)C3CCCC3)O[C@H]2[C@H]1O [Compound 262] | 0.1 to 0.5 µM | > 0.5 µM | > 0.5 µM | > 0.5 µM | – | – | – | –
13 | N#C[C@@]1(c2ccc3c(N)ncnn23)O[C@@H]2CO[P@](=O)(OCOC(=O)CCCc3ccccc3)O[C@H]2[C@H]1O [Compound 263] | < 0.1 µM | < 0.1 µM | 0.1 to 0.5 µM | > 0.5 µM | – | – | – | –
14 | N#C[C@@]1(c2ccc3c(N)ncnn23)O[C@@H]2CO[P@@](=O)(OCOC(=O)CCCc3ccccc3)O[C@H]2[C@H]1O [Compound 264] | < 0.1 µM | 0.1 to 0.5 µM | > 0.5 µM | > 0.5 µM | – | – | – | –
15 | N#C[C@@]1(c2ccc3c(N)ncnn23)O[C@H](COP(=O)(OCOC(=O)CCCc2ccccc2)OCOC(=O)CCCc2ccccc2)[C@@H](O)[C@H]1O [Compound 266] | > 0.5 µM | > 0.5 µM | > 0.5 µM | > 0.5 µM | – | – | – | –
16 | CC(C)OC(=O)C(C)(C)N[P@@](=O)(OCOC(=O)C1CCCC1)OC[C@H]1O[C@@](C#N)(c2ccc3c(N)ncnn23)[C@H](O)[C@@H]1O [Compound 267] | > 0.5 µM | > 0.5 µM | > 0.5 µM | > 0.5 µM | – | – | – | –
17 | CC(C)OC(=O)C(C)(C)N[P@](=O)(OCOC(=O)C1CCCC1)OC[C@H]1O[C@@](C#N)(c2ccc3c(N)ncnn23)[C@H](O)[C@@H]1O [Compound 268] | > 0.5 µM | > 0.5 µM | > 0.5 µM | > 0.5 µM | – | – | – | –
18 | CC(C)OC(=O)C(C)(C)N[P@@](=O)(OCOC(=O)CCCc1ccccc1)OC[C@H]1O[C@@](C#N)(c2ccc3c(N)ncnn23)[C@H](O)[C@@H]1O [Compound 269] | > 0.5 µM | > 0.5 µM | > 0.5 µM | > 0.5 µM | – | – | – | –
19 | CC(C)OC(=O)C(C)(C)N[P@](=O)(OCOC(=O)CCCc1ccccc1)OC[C@H]1O[C@@](C#N)(c2ccc3c(N)ncnn23)[C@H](O)[C@@H]1O [Compound 270] | > 0.5 µM | > 0.5 µM | > 0.5 µM | > 0.5 µM | – | – | – | –
20 | N#C[C@@]1(c2ccc3c(N)ncnn23)O[C@H](COP(=O)(OCOC(=O)OC2CCC2)OCOC(=O)OC2CCC2)[C@@H](O)[C@H]1O [Compound 276] | 0.1 to 0.5 µM | > 0.5 µM | 0.1 to 0.5 µM | > 0.5 µM | – | – | – | –
21 | CCC(CC)COC(=O)[C@H](C)N[P@](=O)(OC[C@H]1O[C@@](C#N)(c2ccc3c(N)ncnn23)[C@H](O)[C@@H]1O)Oc1ccccc1 [Remdesivir, reference compound] | – | – | – | – | < 0.1 µM | 0.1 to 0.5 µM | < 0.1 µM | < 0.1 µM
